A word on the inhibition: it is the percentage by which the read-out fell short of the control.

The target of data set [1] is Ephrin type-A receptor 5 (Homo sapiens) (UniProt P54756). Put plainly: Inhibition of wild-type human partial length EPHA5 (T627 to V930 residues) expressed in bacterial expression system at 10 uM by Kinomescan method relative to control.
Data set [2] addresses Dual specificity testis-specific protein kinase 1 (Homo sapiens) (UniProt Q15569). Kind of data set: Inhibition of wild-type human full length TESK1 (R37 to S626 residues) expressed in bacterial expression system at 10 uM by Kinomescan method relative to control.
In data set [3] the target is NT-3 growth factor receptor (Homo sapiens) (UniProt Q16288). Put plainly: Inhibition of wild-type human partial length TRKC (Q531 to G825 residues) expressed in mammalian expression system at 10 uM by Kinomescan method relative to control.
Data set [4] concerns the target Serine/threonine-protein kinase Nek7 (Homo sapiens) (UniProt Q8TDX7). Kind of data set: Inhibition of wild-type human full length NEK7 (M1 to S302 residues) expressed in bacterial expression system at 10 uM by Kinomescan method relative to control.
In data set [5] the target is Macrophage colony-stimulating factor 1 receptor (Homo sapiens) (UniProt P07333). Put plainly: Inhibition of wild-type human partial length CSF1R (I564 to S939 residues) expressed in bacterial expression system at 10 uM by Kinomescan method relative to control.
The target of data set [6] is Mast/stem cell growth factor receptor Kit (Homo sapiens) (UniProt P10721). Put plainly: Inhibition of wild-type human partial length autoinhibited KIT (Y545 to D952 residues) expressed in mammalian expression system at 10 uM by Kinomescan method relative to control.
In data set [7] the target is RAF proto-oncogene serine/threonine-protein kinase (Homo sapiens) (UniProt P04049). Put plainly: Inhibition of wild-type human partial length RAF1 (I330 to T640 residues) expressed in bacterial expression system at 10 uM by Kinomescan method relative to control.
Data set [8] concerns the target Membrane-associated tyrosine- and threonine-specific cdc2-inhibitory kinase (Homo sapiens) (UniProt Q99640). Put plainly: Inhibition of wild-type human partial length PKMYT1 (A88 to G366 residues) expressed in bacterial expression system at 10 uM by Kinomescan method relative to control.
The target of data set [9] is Activin receptor type-1B (Homo sapiens) (UniProt P36896). Kind of data set: Inhibition of wild-type human ACVR1B (S187 to I505 residues) expressed in bacterial expression system at 10 uM by Kinomescan method relative to control.
For data set [10], the target named is Calcium/calmodulin-dependent protein kinase kinase 2 (Homo sapiens) (UniProt Q96RR4). Kind of data set: Inhibition of wild-type human partial length CAMKK2 (D65 to V471 residues) expressed in bacterial expression system at 1 uM by Kinomescan method relative to control.
The target in data set [11] is Mitogen-activated protein kinase 12 (Homo sapiens) (UniProt P53778). Put plainly: Inhibition of wild-type human full length p38-gamma (M1 to L367 residues) expressed in mammalian expression system at 1 uM by Kinomescan method relative to control.
The target of data set [12] is cGMP-dependent protein kinase 2 (Homo sapiens) (UniProt Q13237). Put plainly: Inhibition of wild-type human partial length PRKG2 (S422 to F762 residues) expressed in mammalian expression system at 1 uM by Kinomescan method relative to control.
A short description of data set [13]: Aqueous kinetic solubility of the compound at pH 6.8 by shake flask assay. The class given is physicochemical. Particulars: read-out: Kinetic_solubility.
Data set [14] deals with Dual specificity mitogen-activated protein kinase kinase 5 (Homo sapiens) (UniProt Q13163). Kind of data set: Inhibition of wild-type human partial length MEK5 (L98 to P448 residues) expressed in mammalian expression system at 1 uM by Kinomescan method relative to control.
Data set [15] has as its target Serine/threonine-protein kinase MARK2 (Homo sapiens) (UniProt Q7KZI7). Kind of data set: Inhibition of wild-type human partial length MARK2 (M1 to R450 residues) expressed in bacterial expression system at 1 uM by Kinomescan method relative to control.
Data set [16] deals with Mitogen-activated protein kinase 11 (Homo sapiens) (UniProt Q15759). Kind of data set: Inhibition of wild-type human full length p38-beta (M1 to Q364 residues) expressed in bacterial expression system at 1 uM by Kinomescan method relative to control.
Data set [17] concerns Tyrosine-protein kinase ABL1 (Homo sapiens), P00519 [E255K]. Put plainly: Inhibition of human phosphorylated ABL1 E255K mutant (S229 to K512 residues) expressed in mammalian expression system at 1 uM by Kinomescan method relative to control.
Data set [18] has as its system Epidermal growth factor receptor (Homo sapiens), P00533 [UNDEFINED MUTATION]. Put plainly: Inhibition of human partial length EGFR L747-S752del/P753S mutant expressed in bacterial expression system at 1 uM by Kinomescan method relative to control.
Data set [19] addresses Mitogen-activated protein kinase 6 (Homo sapiens) (UniProt Q16659). Kind of data set: Inhibition of wild-type human partial length ERK3 (M1 to P413 residues) expressed in bacterial expression system at 1 uM by Kinomescan method relative to control.
Data set [20] is described as follows: Kinetic solubility of the compound at pH 1.5 by shake flask assay. The settings on record: buffer, read-out: Kinetic_solubility. It is filed as physicochemical.
In data set [21] the target is Serine/threonine-protein kinase 35 (Homo sapiens) (UniProt Q8TDR2). Put plainly: Inhibition of wild-type human partial length STK35 (G182 to A534 residues) expressed in bacterial expression system at 1 uM by Kinomescan method relative to control.
Data set [22] deals with Casein kinase I isoform epsilon (Homo sapiens) (UniProt P49674). Put plainly: Inhibition of wild-type human full length CSNK1E (M1 to K416 residues) expressed in bacterial expression system at 1 uM by Kinomescan method relative to control.
Data set [23] concerns the target Serine/threonine-protein kinase PAK 6 (Homo sapiens) (UniProt Q9NQU5). Kind of data set: Inhibition of wild-type human partial length PAK6 (N298 to C681 residues) expressed in bacterial expression system at 1 uM by Kinomescan method relative to control.
The target of data set [24] is Dual specificity protein kinase TTK (Homo sapiens) (UniProt P33981). Kind of data set: Inhibition of wild-type human partial length TTK (N505 to V798 residues) expressed in bacterial expression system at 1 uM by Kinomescan method relative to control.
The target of data set [25] is Leucine-rich repeat serine/threonine-protein kinase 2 (Homo sapiens) (UniProt Q5S007). Put plainly: Inhibition of wild-type human partial length LRRK2 (H970 to E2527 residues) expressed in mammalian expression system at 1 uM by Kinomescan method relative to control.
Data set [26] has as its target Aurora kinase A (Homo sapiens) (UniProt O14965). Kind of data set: Inhibition of wild-type human partial length AURKA (E122 to K401 residues) expressed in mammalian expression system at 1 uM by Kinomescan method relative to control.
Data set [27] addresses Dual specificity tyrosine-phosphorylation-regulated kinase 2 (Homo sapiens) (UniProt Q92630). Put plainly: Inhibition of wild-type human full length DYRK2 (M1 to S528 residues) expressed in mammalian expression system at 1 uM by Kinomescan method relative to control.
Data set [28] deals with SNF-related serine/threonine-protein kinase (Homo sapiens) (UniProt Q9NRH2). Kind of data set: Inhibition of wild-type human partial length SNRK (M1 to E339 residues) expressed in mammalian expression system at 1 uM by Kinomescan method relative to control.

Molecules are shown by their SMILES. ≈ marks a conversion by molar mass, not a printed value.

Dual specificity tyrosine-phosphorylation-regulated kinase 2 (Homo sapiens), sequence (Q92630 whole entry, the tested form may be a part): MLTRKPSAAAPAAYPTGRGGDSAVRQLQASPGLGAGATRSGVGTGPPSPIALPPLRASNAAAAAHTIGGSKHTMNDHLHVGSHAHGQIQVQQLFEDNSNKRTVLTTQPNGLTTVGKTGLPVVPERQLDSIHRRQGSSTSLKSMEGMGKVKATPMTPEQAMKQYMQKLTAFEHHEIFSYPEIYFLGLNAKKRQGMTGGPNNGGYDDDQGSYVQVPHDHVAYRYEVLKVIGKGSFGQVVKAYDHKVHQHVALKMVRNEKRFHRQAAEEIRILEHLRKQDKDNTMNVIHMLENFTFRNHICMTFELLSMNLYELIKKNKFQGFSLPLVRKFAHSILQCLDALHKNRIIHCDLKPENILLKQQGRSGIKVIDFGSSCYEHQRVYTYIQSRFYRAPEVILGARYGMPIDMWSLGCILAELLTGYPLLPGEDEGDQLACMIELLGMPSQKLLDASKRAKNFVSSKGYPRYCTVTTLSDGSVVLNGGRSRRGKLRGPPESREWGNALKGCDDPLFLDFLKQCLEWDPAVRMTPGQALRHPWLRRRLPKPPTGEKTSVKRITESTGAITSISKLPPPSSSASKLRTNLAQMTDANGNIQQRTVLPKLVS
Dual specificity protein kinase TTK (Homo sapiens), sequence (P33981 whole entry, the tested form may be a part): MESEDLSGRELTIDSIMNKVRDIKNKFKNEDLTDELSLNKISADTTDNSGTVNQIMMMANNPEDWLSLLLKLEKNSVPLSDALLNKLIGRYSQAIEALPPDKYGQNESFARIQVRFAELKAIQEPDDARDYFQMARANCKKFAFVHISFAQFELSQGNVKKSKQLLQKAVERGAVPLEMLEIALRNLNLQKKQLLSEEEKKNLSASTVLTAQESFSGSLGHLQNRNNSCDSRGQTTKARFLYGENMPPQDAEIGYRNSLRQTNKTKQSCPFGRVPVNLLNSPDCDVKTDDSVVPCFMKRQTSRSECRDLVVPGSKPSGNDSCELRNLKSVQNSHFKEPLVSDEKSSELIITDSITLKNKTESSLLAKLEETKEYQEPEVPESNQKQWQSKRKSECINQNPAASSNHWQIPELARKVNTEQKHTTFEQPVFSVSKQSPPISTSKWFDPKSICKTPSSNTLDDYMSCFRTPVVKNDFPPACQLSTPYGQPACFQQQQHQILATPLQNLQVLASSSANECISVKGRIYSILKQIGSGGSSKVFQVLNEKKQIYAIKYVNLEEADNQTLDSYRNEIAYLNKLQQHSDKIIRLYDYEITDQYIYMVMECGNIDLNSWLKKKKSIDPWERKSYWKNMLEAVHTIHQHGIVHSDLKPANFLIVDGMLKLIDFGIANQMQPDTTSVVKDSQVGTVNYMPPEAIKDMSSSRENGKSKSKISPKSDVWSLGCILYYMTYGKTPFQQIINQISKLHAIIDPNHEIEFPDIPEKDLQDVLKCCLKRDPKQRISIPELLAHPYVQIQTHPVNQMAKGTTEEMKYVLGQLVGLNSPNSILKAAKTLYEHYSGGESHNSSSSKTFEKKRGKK
Serine/threonine-protein kinase Nek7 (Homo sapiens), sequence (Q8TDX7 whole entry, looked up, the tested form may be a part): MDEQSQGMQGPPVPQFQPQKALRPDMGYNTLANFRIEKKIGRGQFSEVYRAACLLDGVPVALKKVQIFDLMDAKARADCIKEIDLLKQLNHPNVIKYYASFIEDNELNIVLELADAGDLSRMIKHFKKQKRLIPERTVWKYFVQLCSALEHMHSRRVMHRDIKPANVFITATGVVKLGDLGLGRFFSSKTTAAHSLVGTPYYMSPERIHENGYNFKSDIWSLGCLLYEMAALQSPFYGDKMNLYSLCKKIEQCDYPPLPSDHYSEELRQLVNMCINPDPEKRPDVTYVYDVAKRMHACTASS
SNF-related serine/threonine-protein kinase (Homo sapiens), sequence (Q9NRH2 whole entry, the tested form may be a part): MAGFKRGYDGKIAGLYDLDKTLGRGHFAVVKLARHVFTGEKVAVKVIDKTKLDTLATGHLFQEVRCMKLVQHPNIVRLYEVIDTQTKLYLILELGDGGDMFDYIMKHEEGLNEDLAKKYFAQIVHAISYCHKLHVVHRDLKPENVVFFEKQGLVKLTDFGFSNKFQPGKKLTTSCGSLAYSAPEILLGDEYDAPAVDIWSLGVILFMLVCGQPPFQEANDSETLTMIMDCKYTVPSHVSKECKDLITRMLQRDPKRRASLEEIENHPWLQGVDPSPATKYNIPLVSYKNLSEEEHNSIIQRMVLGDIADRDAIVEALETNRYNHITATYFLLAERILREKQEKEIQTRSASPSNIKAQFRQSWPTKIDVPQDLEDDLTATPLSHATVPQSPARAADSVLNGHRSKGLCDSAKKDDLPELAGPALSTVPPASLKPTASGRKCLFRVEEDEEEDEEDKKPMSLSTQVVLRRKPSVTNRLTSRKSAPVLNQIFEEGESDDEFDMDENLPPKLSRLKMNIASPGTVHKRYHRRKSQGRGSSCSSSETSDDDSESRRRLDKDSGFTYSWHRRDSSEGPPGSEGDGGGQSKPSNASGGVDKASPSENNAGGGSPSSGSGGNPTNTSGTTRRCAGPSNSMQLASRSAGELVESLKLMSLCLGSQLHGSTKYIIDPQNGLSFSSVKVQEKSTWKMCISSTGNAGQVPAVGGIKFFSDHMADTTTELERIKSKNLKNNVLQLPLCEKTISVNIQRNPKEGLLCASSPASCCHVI
Serine/threonine-protein kinase 35 (Homo sapiens), sequence (Q8TDR2 whole entry, the tested form may be a part, canonical isoform): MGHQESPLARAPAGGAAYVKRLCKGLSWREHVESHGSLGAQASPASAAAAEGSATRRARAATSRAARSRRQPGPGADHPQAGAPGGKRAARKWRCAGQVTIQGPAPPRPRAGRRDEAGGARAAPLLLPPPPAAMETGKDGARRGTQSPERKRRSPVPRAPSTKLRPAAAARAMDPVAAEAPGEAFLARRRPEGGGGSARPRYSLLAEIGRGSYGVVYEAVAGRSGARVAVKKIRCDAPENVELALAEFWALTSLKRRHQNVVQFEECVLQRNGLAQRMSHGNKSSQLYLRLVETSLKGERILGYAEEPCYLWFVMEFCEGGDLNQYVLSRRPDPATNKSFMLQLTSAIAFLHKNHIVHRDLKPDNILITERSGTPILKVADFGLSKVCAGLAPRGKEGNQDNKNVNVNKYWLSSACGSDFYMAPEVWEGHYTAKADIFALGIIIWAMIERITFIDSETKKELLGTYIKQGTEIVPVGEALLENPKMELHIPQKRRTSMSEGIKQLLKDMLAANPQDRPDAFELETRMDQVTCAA
Ephrin type-A receptor 5 (Homo sapiens), sequence (P54756 whole entry, the tested form may be a part): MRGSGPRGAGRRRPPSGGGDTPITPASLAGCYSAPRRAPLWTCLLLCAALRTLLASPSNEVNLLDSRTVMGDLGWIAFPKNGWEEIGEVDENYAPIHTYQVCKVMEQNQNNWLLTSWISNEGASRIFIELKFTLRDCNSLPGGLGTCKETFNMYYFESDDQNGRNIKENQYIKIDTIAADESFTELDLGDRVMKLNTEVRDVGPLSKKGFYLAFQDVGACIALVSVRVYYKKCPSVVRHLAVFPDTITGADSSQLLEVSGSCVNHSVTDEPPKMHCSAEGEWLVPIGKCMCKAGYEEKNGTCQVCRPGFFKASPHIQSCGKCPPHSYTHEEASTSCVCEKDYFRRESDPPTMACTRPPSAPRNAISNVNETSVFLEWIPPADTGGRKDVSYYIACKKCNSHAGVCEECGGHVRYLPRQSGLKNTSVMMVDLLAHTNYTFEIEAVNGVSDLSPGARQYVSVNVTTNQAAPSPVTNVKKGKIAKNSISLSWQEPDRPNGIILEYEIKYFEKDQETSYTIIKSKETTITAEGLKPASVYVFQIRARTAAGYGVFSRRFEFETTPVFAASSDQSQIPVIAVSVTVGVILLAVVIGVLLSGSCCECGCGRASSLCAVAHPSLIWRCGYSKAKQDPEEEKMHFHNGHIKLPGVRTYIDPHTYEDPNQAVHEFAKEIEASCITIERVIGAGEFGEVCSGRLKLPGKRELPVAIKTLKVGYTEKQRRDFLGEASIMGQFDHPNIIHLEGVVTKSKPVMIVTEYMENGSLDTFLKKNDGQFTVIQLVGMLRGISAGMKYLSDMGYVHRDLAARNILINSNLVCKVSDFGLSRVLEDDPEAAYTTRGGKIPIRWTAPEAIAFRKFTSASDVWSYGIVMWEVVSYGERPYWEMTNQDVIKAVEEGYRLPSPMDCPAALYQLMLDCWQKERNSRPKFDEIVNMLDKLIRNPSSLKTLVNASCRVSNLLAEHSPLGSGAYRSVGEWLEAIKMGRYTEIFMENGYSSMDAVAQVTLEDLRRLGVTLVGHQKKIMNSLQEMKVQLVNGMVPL
Serine/threonine-protein kinase MARK2 (Homo sapiens), sequence (Q7KZI7 whole entry, the tested form may be a part): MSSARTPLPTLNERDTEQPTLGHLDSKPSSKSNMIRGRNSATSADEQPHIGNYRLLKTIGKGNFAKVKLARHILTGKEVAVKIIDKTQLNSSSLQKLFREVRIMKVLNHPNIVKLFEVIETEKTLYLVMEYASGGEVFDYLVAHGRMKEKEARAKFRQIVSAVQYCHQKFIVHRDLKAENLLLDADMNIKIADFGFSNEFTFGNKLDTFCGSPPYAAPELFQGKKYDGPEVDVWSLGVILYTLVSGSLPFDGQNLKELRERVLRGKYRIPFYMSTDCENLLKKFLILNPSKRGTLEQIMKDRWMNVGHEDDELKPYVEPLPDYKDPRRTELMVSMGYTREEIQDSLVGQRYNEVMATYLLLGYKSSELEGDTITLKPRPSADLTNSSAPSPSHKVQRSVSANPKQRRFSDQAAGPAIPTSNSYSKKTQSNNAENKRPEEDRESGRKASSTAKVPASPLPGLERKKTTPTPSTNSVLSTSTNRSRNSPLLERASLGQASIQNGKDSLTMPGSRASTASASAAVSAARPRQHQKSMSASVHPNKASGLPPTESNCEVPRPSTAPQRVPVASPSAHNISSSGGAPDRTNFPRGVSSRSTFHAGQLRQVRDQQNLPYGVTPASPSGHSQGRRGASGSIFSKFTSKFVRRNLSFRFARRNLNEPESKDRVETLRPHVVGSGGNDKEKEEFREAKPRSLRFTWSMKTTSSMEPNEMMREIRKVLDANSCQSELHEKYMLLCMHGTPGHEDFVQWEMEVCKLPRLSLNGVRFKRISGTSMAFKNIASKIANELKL

Consider `O=C(Nc1cccc([C@H]2CCCN(c3ncnc4[nH]ccc34)C2)c1)Nc1ccccc1N1CCCC1`, for which the inhibition in data set [1] came to 97%; in [2] it was 100%; in data set [3], 36%; in data set [4], 72%; in [5], 20%; in data set [6] it was 71%. The inhibition in data set [7] amounted to 86%; in data set [8], 71%; in [9] it was 100%.

As to `O=C(Nc1cccc([C@@H]2CN(c3ncnc4[nH]ccc34)CCN2CCO)c1)Nc1c(F)cccc1N1CCCC1`, the inhibition was determined as 94% in data set [10]; 81% in [11]; 100% in [12]; 67% in data set [14]; 69% in data set [15]; 92% in data set [16]. Besides, the inhibition in data set [17] amounted to 43%; in data set [18] it was 100%; in data set [19] it was 100%; in [21], 100%; in [22] it was 94%; in data set [23], 100%. Moreover, the inhibition is 98% in [24]; 100% in data set [25]; 3.6% in [26]; 100% in [27]; 88% in data set [28]. Also, the solubility kinetic in data set [13] came to 0.008 mg/mL (≈ 14.7 µM); in data set [20], 0.094 mg/mL (≈ 173 µM).

The values above are taken from ChEMBL document CHEMBL4387741, “Optimization of novel reversible Bruton's tyrosine kinase inhibitors identified using Tethering-fragment-based screens” (Bioorg Med Chem, 2019).
